Measurements taken from patent US9121007B2, “Treatment of bone-related cancers using placental stem cells” (ANTHROGENESIS CORPORATIN, priority 2010, dated 2015).

Tested on: osteoclast precursors
Test: Osteoclastogenesis from osteoclast precursors with lenalidomide
Type: cell-based
Procedure: FIG. 15. Therefore, there is a possible synergistic or additive anti-osteoclastogenic effect of PDACs and lenalidomide at concentration of between about 0.1 μM to 1 μM.

Nc1cccc2c1CN(C1CCC(=O)NC1=O)C2=O (centres unmarked) [lenalidomide, 3-(4-amino-1-oxo 1,3-dihydro-2H-isoindol-2-yl) piperidine-2,6-dione]
number of osteoclasts that differentiated from the osteoclast precursors (0.1 μM or 1 μM lenalidomide with placental stem cells, vs placental stem cells or BM-MSC): further decrease the number of osteoclasts
number of osteoclasts formed (lenalidomide alone at concentrations around 1 μM): steep decline in the number of osteoclasts formed
